We go through 121 molecules from a melting point compilation (Tetko et al.).

As usually defined, the melting point is the temperature of the solid-liquid transition.

The molecule `CN(C)c1cccc(Oc2ccc(C(N)=S)cc2)c1` returned a melting point of 182 to 184 °C.
`N#Cc1ccc(Oc2ccc(O)cc2)cc1` came in with a melting point of 148 to 150 °C.
`O=C(O)Cc1coc(-c2cccs2)n1` came in with a melting point of 185 to 187 °C.
In the case of `O=C(O)CSc1nncs1` it was 157 to 159 °C.
Regarding `CNS(=O)(=O)CC1CCCN1` (stereo unspecified), the melting point lay in the range of 91 to 93 °C.
As to `COC(=O)Cc1nnc(N)[nH]1`, the melting point lay within 159 to 161 °C.
In the case of `COc1cc(C)c(C=O)cc1OC` it was 70 to 72 °C; in that of `COC(=O)c1ccc(O)nc1C`, 222 to 224 °C.
`COc1ccc(NC2=C(Cl)C(=O)N(c3ccc(C)cc3)C2=O)cc1` yielded a melting point of 194 to 196 °C.
Regarding `COC(=O)c1coc(-c2cccc(C#N)c2)n1`, the melting point fell in the range of 183 to 185 °C.
`CC(C)(C)OC(=O)Nc1cn[nH]c1` showed a melting point of 179 to 181 °C.
For the molecule `O=S(=O)(c1ccc(Br)s1)N1CCNCC1`, the melting point lay in the range of 195 to 205 °C.
On to `Cn1cnnc1-c1ccc(N)cc1`, for which the melting point lay within 256 to 258 °C.
The figure for `Cc1nn(C(C)(C)C)c(C)c1N` is 54 to 56 °C.
`CC(C)(C)C(=O)NCCc1ccc(S(N)(=O)=O)s1` returned a melting point of 144 to 146 °C.
Consider `COc1ccccc1OCc1ccc(C(=O)O)o1`, for which the melting point was in the range of 183 to 185 °C.
`Cc1oc(-c2ccsc2)nc1CCl` yielded a melting point of 101 to 103 °C.
Molecule `CN(C1CCCCC1)S(=O)(=O)c1cccc(C(=O)O)c1` showed a melting point of 145 to 147 °C.
For the molecule `Cc1n[nH]c(C)c1SCC(=O)O`, the melting point was in the range of 153 to 155 °C.
In turn, `Cc1nn(-c2ccccc2Cl)c2sc(C(=O)O)cc12` came in with a melting point of 56 to 58 °C.
The figure for `Nc1ccc2c(c1)NC(=O)CO2` is 215 to 217 °C; for `CNC1=NS(=O)(=O)c2ccccc21` it is 269 to 271 °C.
As to `O=C(O)c1ccccc1-c1nc2ccccc2s1`, the melting point was 190 to 192 °C.
The figure for `Cc1cc(Br)c(O)c([N+](=O)[O-])c1` is 84 to 86 °C; for `O=C(O)CNC(=O)c1cc2c(s1)CCCC2` it is 177 to 179 °C; for `O=C(O)C1CCN(S(=O)(=O)c2cccs2)CC1` it is 133 to 135 °C.
In the case of `CN(C)c1ncncc1N`, the melting point is 97 to 99 °C.
On to `NC(CN1CCC(O)CC1)=NO`, for which the melting point was 182 to 184 °C.
As to `Cc1c(C(=O)O)nnn1-c1cccc([N+](=O)[O-])c1`, the melting point fell in the range of 169 to 171 °C.
Molecule `Cc1ccc2c(CCC(=O)O)c[nH]c2c1` had a melting point of 127 to 129 °C.
`O=S(=O)(c1cccc(-c2nnc(S)n2Cc2ccc(F)cc2)c1)N1CCOCC1` displayed a melting point of 231 to 233 °C.
`Cc1ccc(/C=C/c2n[nH]c(S)n2)o1` had a melting point of 275 to 277 °C.
Take `CCOC(=O)c1c(C)noc1N`: the melting point lay in the range of 133 to 135 °C.
The figure for `CC(C)Oc1ccc(S(N)(=O)=O)cc1` is 121 to 123 °C; for `O=C(O)c1ccc(-c2cccc(Cl)c2)s1` it is 222 to 224 °C.
In the case of `CC(C)(C)C(=O)N1CCNCC1` it was 52 to 54 °C; in that of `CC(C(=O)O)c1cc2ccccc2o1` (stereo unspecified), 91 to 93 °C.
In turn, `O=C(O)c1cc(Cl)cc(Cl)n1` yielded a melting point of 93 to 95 °C.
For `N#Cc1cccc(S(=O)(=O)Nc2cn[nH]c2)c1`, the melting point is 162 to 164 °C.
As to `COc1cc(S(N)(=O)=O)c(OC)cc1N`, the melting point fell in the range of 203 to 205 °C.
Molecule `CN(C)c1ccc(N)c2cnccc12` yielded a melting point of 107 to 109 °C.
For `Cn1ccc2cc[nH]c(=O)c21`, the melting point fell in the range of 190 to 192 °C.
In the case of `O=C(O)CCc1nc(-c2cc(Br)cs2)no1` it was 129 to 131 °C.
On to `NNC(=O)CSc1n[nH]c(=O)[nH]c1=O`, for which the melting point is 225 to 227 °C.
Take `Cc1cc(C)n(Cc2cccc(C(N)=NO)c2)n1`: the melting point lay in the range of 137 to 139 °C.
With `O=C(O)COc1cccc(N2CCCC2=O)c1`, the melting point was in the range of 169 to 171 °C.
As for `Cc1[nH]c2ccnn2c(=O)c1CC(=O)O`, the melting point was 293 to 295 °C.
`Cc1nnc(S)n1-c1ccccc1` showed a melting point of 224 to 226 °C.
Consider `O=C(O)c1cn(Cc2ccccc2)nn1`, for which the melting point was in the range of 176 to 178 °C.
Take `CC(C)(C)c1nnn[nH]1`: the melting point was 203 to 205 °C.
Take `CC(C)(CCC(=O)O)NC(=O)OCC1c2ccccc2-c2ccccc21`: the melting point was in the range of 119 to 121 °C.
The molecule `O=C1c2ccccc2C(=O)N1CC1CO1` (stereo unspecified) gave a melting point of 98 to 100 °C.
In the case of `COC(=O)c1cncc(I)c1` it was 79 to 81 °C; in that of `CC(C)Cn1ncc(C(=O)O)c1C(F)F`, 99 to 101 °C; in that of `Cc1cc(C(=O)CBr)ccc1O`, 119 to 121 °C.
Turning to `CC(O)Cc1cc(F)cc(Br)c1` (stereo unspecified), the melting point is 39 to 41 °C.
`NS(=O)(=O)c1ccc(F)c2ncccc12`: the melting point was 256 to 258 °C.
Consider `CC1CC(C(=O)O)CCO1` (stereo unspecified), for which the melting point was 44 to 46 °C.
Take `O=C(O)/C=C/c1cccc(Cl)c1Cl`: the melting point was 233 to 235 °C.
On to `NC(Cn1cnc2ccccc21)c1ccc(F)cc1` (stereo unspecified), for which the melting point lay within 86 to 88 °C.
The molecule `Nc1nncc(-c2ccc(Br)cc2)n1` registered a melting point of 258 to 260 °C.
`O=Cc1cc(C(=O)O)cs1` returned a melting point of 173 to 175 °C.
The figure for `ON=Cc1c(Cl)nc2ccccn12` is 209 to 211 °C; for `CSC(=CC(=O)c1cccnc1)SC` it is 103 to 105 °C.
In turn, `COc1ccc(-n2c(N)nc3ccccc32)cc1` displayed a melting point of 181 to 183 °C.
In turn, `Cc1c(N2CCOC2=O)cccc1[N+](=O)[O-]` gave a melting point of 67 to 69 °C.
The figure for `CNc1ccccc1C(=O)NCCc1ccc(OC)cc1` is 96 to 98 °C; for `Cn1c(-c2ccccc2)c(C=O)c2ccccc21` it is 125 to 127 °C; for `O=Cc1cc(-c2ccccc2)ccc1O` it is 99 to 101 °C.
Turning to `CC(C)(C)OC(=O)Nc1ccc(C(F)(F)F)cc1C(=O)O`, the melting point lay within 190 to 192 °C.
The figure for `O=[N+]([O-])c1cc(S(=O)(=O)C(F)(F)F)ccc1Cl` is 57 to 59 °C; for `O=C(O)C1CCN(C(=O)Nc2ccccc2)CC1` it is 178 to 183 °C.
`Nc1ncncc1-c1ccccc1` returned a melting point of 155 to 157 °C.
In turn, `COC(=O)c1sc(Cl)nc1Cl` had a melting point of 54 to 56 °C.
In turn, `CCOC(=O)COc1ccc(C#N)cc1OC` gave a melting point of 69 to 71 °C.
`COC(=O)c1ccc(S(=O)(=O)Cl)c(Br)c1`: the melting point lay within 82 to 84 °C.
In turn, `CCc1csc(-n2cc(C(=O)O)cn2)n1` came in with a melting point of 159 to 161 °C.
In the case of `CC1(C)CC(=O)OC1=O` it was 29 to 31 °C.
On to `COC(=O)c1cc(N2CCOCC2)ccc1N`, for which the melting point was in the range of 106 to 108 °C.
In the case of `CCCNS(=O)(=O)c1ccc(/C=C/C(=O)O)cc1`, the melting point lay in the range of 235 to 237 °C.
In the case of `COc1cccc(NC(=S)NN)c1`, the melting point was 168 to 170 °C.
Take `CC(O)CS(C)(=O)=O` (stereo unspecified): the melting point fell in the range of 51 to 53 °C.
Molecule `O=C(O)c1cccc(OCc2ccccc2)c1` yielded a melting point of 113 to 115 °C.
On to `O=C(O)CCCCN1CCOCC1`, for which the melting point is 99 to 101 °C.
`O=C1Nc2c(Br)ccc(Br)c2C1=O`: the melting point lay in the range of 271 to 273 °C.
Molecule `O=C(O)C1(O)Cc2ccccc2C1` yielded a melting point of 176 to 178 °C.
`CCOc1cccc2c1OCC(C(=O)O)=C2` showed a melting point of 219 to 221 °C.
In the case of `Cc1ccc(S(=O)(=O)N(C)CC(=O)O)cc1` it was 228 to 230 °C.
In the case of `O=C(O)C1CCN(C=CC(=O)C(F)(F)F)CC1` it was 135 to 137 °C.
`CC(C)c1ccc(CCC(=O)O)cc1` registered a melting point of 71 to 73 °C.
`N#Cc1ccc(COc2ccccc2F)cc1`: the melting point was 68 to 70 °C.
In the case of `O=C(O)c1n[nH]cc1[N+](=O)[O-]` it was 223 to 225 °C; in that of `Cc1ccccc1COc1cccc(CC(=O)O)c1`, 52 to 54 °C.
`CS(=O)(=O)c1ccsc1C(=O)O` displayed a melting point of 179 to 181 °C.
`Cc1ccc(S(=O)(=O)Nc2cc(Cl)ccc2C(=O)O)cc1` returned a melting point of 205 to 207 °C.
In turn, `CCN(Cc1ccccc1)c1ccc(C=O)cc1` registered a melting point of 38 to 42 °C.
As for `CC(C)(C)Oc1ncccc1O`, the melting point was 86 to 88 °C.
The figure for `Cc1cccc(NC(=O)N2CCCC(C(=O)O)C2)c1` (stereo unspecified) is 139 to 141 °C.
With `NC(=O)NC(CC(=O)O)c1ccc(Br)cc1` (stereo unspecified), the melting point lay in the range of 199 to 201 °C.
With `O=C(CCc1ccccc1Cl)c1ccccc1`, the melting point lay within 46 to 48 °C.
Molecule `OCc1ccccc1Oc1ccc(I)cc1` came in with a melting point of 65 to 67 °C.
For `Cc1c(C(N)=O)sc2nc[nH]c(=O)c12`, the melting point is 283 to 285 °C.
`Cc1ccc(C)c(-n2c(=O)c(N)c(C)n2C)c1` displayed a melting point of 19 to 20 °C.
The molecule `CCOC(=O)Cc1c(C)nc(O)nc1C` showed a melting point of 135 to 137 °C.
Consider `Cc1nn(-c2ccc(F)cc2)c2sc(C(=O)O)cc12`, for which the melting point fell in the range of 205 to 210 °C.
With `CC(C)C(N)c1nc(-c2nnc[nH]2)no1` (stereo unspecified), the melting point fell in the range of 210 to 212 °C.
Take `CCCN(CCC)C(=O)c1cccc(C(=O)O)c1`: the melting point was in the range of 94 to 96 °C.
The molecule `ClCc1nc(-c2cccs2)n[nH]1` registered a melting point of 159 to 161 °C.
`CC(C)(C)OC(=O)N1CC(O)CC1C(=O)O` (stereo unspecified) returned a melting point of 145 to 147 °C.
The figure for `CCOC(=O)c1ccc2c(c1)NC(=O)C(C)N2` (stereo unspecified) is 181 to 183 °C; for `NS(=O)(=O)c1ccc(/C=C/C(=O)O)cc1` it is 274 to 276 °C.
As for `CCCn1nc(C(=O)O)ccc1=O`, the melting point was 132 to 134 °C.
In turn, `CN1CC(=O)N(CCCC(=O)O)C1=O` registered a melting point of 79 to 81 °C.
The figure for `CC1CCC(C(C)C)C(OC(=O)CCl)C1` (stereo unspecified) is 65 to 66 °C.
`CCc1ccccc1-n1cc(O)c(C(=O)O)n1` showed a melting point of 101 to 103 °C.
The figure for `NC(=O)c1ccccc1OCCO` is 112 to 114 °C.
In the case of `Cc1cccc2c(O)c(C(=O)O)cnc12` it was 281 to 283 °C; in that of `O=C(O)c1cc(Cl)c(Cl)cc1C(=O)O`, 201 to 203 °C.
Take `Cc1cc(C(=O)CCl)c(C)n1-c1ccc2c(c1)OCCO2`: the melting point was in the range of 99 to 103 °C.
`CC(Cl)C(=O)NC(C)(C)C` (stereo unspecified) came in with a melting point of 84 to 86 °C.
The figure for `NNc1ccc(S(=O)(=O)N2CCOCC2)cn1` is 179 to 181 °C.
